Experimental data from patent publication US11827636B2, “Degradation of cyclin-dependent kinase 8 (CDK8) by conjugation of CDK8 inhibitors with E3 ligase ligand and methods of use” (DANA-FARBER CANCER INSTITUTE, INC., priority 2016, dated 2023).

Tests used:
Format in all cases: cell-based
pS727-STAT1 [1] = assay: Western blot, pS727-STAT1 level in wild-type (WT) Molt4 cells; conditions: 1 μM compound, 6 hours
Method: (§1) Cells are treated with a control or a bifunctional compound of the application alone or in combination with an agent that blocks proteasomal degradation at a single concentration or various concentrations. After treatment, cells are washed and harvested by resuspending in buffer and lysed on ice 30 minutes. Lysates are then cleared by centrifugation. Samples are boiled and equal amount of protein is loaded onto polyacrylamide gel. The gel is transferred to nitrocellulose and blotted for CDK8, mTOR, STAT1 serine 727 phosphorylation or actin.
(§2) The indicated cells were treated with vehicle control or the bifunctional compounds of the application, at a single or various concentrations, alone or in combination with bortezomib, an agent that blocks proteasomal degradation. After treatment, cells were washed with PBS and lysed in lysis buffer and then cleared by centrifugation. Protein concentrations were determined by BCA assay, and equal amounts of protein were loaded onto gels to perform Western blots. Gels were transferred to nitrocellulose, blocked with 5% milk in TBS-T, and probed for CDK8, mTOR, S727-STAT1, and Actin. Antibody binding was detected using near-infrared-dye-conjugated secondary antibodies.

CDK8 [2] = target: T1, CDK8 (Homo sapiens, UniProt P49336); assay: Enzyme degradation assay (western blot), CDK8 level in wild-type (WT) Molt4 cells; conditions: 1 μM compound, 6 hours
T1 construct: endogenous in cells; host or cells: wild-type Molt4 cells
T1 sequence (P49336 whole entry): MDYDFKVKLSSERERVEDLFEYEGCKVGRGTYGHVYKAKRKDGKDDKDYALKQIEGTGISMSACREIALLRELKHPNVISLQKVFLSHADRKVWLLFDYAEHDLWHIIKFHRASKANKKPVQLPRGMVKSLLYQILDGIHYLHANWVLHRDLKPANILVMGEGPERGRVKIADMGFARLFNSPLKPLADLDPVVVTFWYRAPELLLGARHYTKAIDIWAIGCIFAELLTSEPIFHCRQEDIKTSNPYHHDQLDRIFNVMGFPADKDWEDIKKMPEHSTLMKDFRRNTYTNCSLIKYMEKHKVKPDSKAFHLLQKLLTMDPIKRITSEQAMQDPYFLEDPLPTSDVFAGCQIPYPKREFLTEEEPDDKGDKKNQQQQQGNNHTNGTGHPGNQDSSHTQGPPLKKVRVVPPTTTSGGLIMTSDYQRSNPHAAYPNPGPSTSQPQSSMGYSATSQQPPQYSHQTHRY
T1 sequence (P24863 whole entry partner): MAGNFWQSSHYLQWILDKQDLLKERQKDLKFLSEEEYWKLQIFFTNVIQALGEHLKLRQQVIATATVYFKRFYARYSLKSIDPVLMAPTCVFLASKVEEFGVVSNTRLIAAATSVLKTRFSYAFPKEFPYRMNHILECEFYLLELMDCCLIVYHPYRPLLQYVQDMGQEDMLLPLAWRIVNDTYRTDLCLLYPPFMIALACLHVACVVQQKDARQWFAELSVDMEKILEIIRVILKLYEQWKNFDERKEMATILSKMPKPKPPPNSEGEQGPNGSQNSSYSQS
T1 sequence (Q96SW2 whole entry partner): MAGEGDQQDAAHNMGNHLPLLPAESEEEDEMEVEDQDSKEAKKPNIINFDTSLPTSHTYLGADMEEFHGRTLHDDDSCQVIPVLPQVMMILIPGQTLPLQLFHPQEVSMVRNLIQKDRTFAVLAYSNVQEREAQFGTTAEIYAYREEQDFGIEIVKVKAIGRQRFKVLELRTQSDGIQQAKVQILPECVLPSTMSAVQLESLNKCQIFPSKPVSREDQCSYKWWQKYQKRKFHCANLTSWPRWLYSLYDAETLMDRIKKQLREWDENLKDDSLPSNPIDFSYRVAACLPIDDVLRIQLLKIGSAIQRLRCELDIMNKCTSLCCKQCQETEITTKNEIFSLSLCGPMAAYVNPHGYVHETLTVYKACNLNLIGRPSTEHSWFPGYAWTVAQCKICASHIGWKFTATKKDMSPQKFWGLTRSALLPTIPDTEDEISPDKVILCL
Method: as §1, §2

pS727-STAT1 [3] = assay: Western blot, pS727-STAT1 level in MC38 colorectal cancer cells; conditions: 6 hours
Method: as §1, §2

CDK8 [4] = target: T2, CDK8 (Mus musculus, UniProt Q8R3L8); assay: Enzyme degradation assay (western blot), CDK8 level in MC38 colorectal cancer cells; conditions: 6 hours
T2 construct: levels of CDK8, pS727-STAT1, and actin in MC38 colorectal cancer cells; endogenous in cells; host or cells: MC38 colorectal cancer cells
T2 sequence (Q8R3L8 1-464): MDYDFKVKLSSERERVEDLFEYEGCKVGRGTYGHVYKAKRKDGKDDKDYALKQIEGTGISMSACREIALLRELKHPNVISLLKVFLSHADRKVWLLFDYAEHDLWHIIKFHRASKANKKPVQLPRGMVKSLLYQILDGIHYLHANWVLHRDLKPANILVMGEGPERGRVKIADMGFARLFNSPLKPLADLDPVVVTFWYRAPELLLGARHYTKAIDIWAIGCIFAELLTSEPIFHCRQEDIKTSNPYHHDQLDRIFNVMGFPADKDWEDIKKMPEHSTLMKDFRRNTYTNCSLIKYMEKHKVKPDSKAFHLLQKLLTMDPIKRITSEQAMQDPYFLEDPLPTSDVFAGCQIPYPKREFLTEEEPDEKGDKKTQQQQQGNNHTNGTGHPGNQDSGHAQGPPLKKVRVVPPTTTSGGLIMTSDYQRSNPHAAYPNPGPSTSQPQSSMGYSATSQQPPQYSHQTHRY
T2 sequence (Q62447 1-283 partner): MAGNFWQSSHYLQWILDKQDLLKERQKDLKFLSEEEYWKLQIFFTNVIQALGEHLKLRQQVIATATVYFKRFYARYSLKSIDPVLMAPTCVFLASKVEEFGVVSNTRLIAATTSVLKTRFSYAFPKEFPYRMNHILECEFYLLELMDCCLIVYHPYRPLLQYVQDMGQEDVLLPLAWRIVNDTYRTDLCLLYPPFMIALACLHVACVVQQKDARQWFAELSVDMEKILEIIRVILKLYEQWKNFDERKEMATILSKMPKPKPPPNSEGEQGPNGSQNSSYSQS
T2 sequence (Q8C7D2 1-445 partner): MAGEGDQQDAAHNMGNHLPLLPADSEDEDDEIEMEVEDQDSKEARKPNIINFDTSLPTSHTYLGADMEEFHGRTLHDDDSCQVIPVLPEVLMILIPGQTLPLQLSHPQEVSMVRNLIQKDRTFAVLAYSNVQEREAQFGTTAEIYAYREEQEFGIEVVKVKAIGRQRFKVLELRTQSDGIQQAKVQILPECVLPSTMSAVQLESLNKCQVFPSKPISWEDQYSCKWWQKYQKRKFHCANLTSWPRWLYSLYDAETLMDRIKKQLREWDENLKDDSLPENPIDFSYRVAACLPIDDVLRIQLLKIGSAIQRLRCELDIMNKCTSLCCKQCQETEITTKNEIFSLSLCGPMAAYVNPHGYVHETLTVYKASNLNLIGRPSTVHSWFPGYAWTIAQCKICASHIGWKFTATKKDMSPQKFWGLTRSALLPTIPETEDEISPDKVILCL
Method: as §1
Cells are treated with a control or a bifunctional compound of the application at various concentrations for a desired period of time. Cells are then lysed in a suitable buffer. Protein concentration may be measured with any appropriate assay known in the art. […] The signals from the label are detected.
The indicated cells were treated with vehicle control or the bifunctional compounds of the application, at a single or various concentrations, alone or in combination with bortezomib, an agent that blocks proteasomal degradation. […] Protein concentrations were determined by BCA assay, and equal amounts of protein were loaded onto gels to perform Western blots. […] Antibody binding was detected using near-infrared-dye-conjugated secondary antibodies. […]

[5] = 1 μM compound in combination with 10 nM bortezomib

degradation of CDK8 (western blot level of CDK8) (CDK8 [2])	degradation of CDK8 when the proteasome is inhibited with bortezomib (CDK8 [4]; [5])	degradation of CDK8 (western blot level of CDK8) (CDK8 [4]; 1 μM compound, alone)	Compound	phosphorylation of Ser727-STAT1 (pS727-STAT1 [1])	reduction in the level of pSer727-STAT1 when the proteasome is inhibited with bortezomib (pS727-STAT1 [3]; [5])	level of phosphorylation of the CDK8 substrate Ser727-STAT1 (pS727-STAT1 [3]; 1 μM compound, alone)
efficiently degraded CDK8	–	–	O=C1CCC(N2C(=O)c3cccc(NCCCCn4cc(-c5ccc(-c6cncc(Cl)c6N6CCC7(CCNC7=O)CC6)cc5)cn4)c3C2=O)C(=O)N1 (centres unmarked) [Compound I-6, 4-(4-(4-(4-(5-chloro-4-(1-oxo-2,8-diazaspiro[4.5]decan-8-yl)pyridin-3-yl)phenyl)-1H-pyrazol-1-yl)butylamino)-2-(2,6-dioxopiperidin-3-yl)isoindoline-1,3-dione]	blocked phosphorylation	–	–
efficiently degraded CDK8	rescued	efficiently degraded CDK8	O=C1CCC(N2C(=O)c3cccc(NCCOCCOCCOCCOCCOCCC(=O)N4CCN(c5ccc(-n6c(=O)ccc7cnc8ccc(-c9ccc%10ccncc%10c9)cc8c76)cc5C(F)(F)F)CC4)c3C2=O)C(=O)N1 (centres unmarked) [Compound I-3, 2-(2,6-dioxopiperidin-3-yl)-4-((18-(4-(4-(9-(isoquinolin-7-yl)-2-oxobenzo[h][1,6]naphthyridin-1(2H)-yl)-2-(trifluoromethyl)phenyl)piperazin-1-yl)-18-oxo-3,6,9,12,15-pentaoxaoctadecyl)amino)isoindoline-1,3-dione]	blocked phosphorylation	rescued	lowered the level of phosphorylation
